Assay results taken from patent US11896649B2, “Methods and pharmaceutical compositions for the treatment of post-operative cognitive dysfunction” (INSERM (INSTITUT NATIONAL DE LA SANTE ET DE LA RECHERCHE …, priority 2016, dated 2024).

Experiments:
fractured mice [1] = settings: 20 month old mice, i.p. apelin 0.5 nmol/kg before and during 3 days after the fracture, tested after 3 days; FIG. 4
Method: FIG. 4: Percentage of freezing in aged mice. Twenty month old male C57B16/j mice were fractured with (fracture apelin) or without (fracture PBS) an i.p treatment of apelin (0.5 nmol/kg) before and during 3 days after the fracture. After 3 days, animal hippocampal memory was tested by fear conditioning test. N=6 to 10, *p<0.05 compared to control.
To test the long-term memory and learning abilities, a fitness test to fear (Fear Conditioning Test) was used.
During the learning session, this test combines a painful and anxiety-producing event (2 short electrical discharges 0.3 mA 2 s on the legs) in an environmental context (floor cage with metal grills, washed several times a day with an alcoholic solution), visual (compound walls of black and white stripes, and white light patterns on the walls of the room) and sound (each discharge is preceded by a 80 dB sound 20 seconds). The learning phase lasted 4 minutes 25 seconds.
In the context of test sessions, conducted in the 3rd postoperative day, the animal was reintroduced in the same cage for 4 minutes. The context was the same but without sound stimulation or pain stimulus. […] Operator who ignored the treatment received by each animal evaluated the freezing time of each animal. […]

IL-6 mRNA = settings: fractured mice, tissues collected 72 hours after fracture; FIG. 3b
Method: (§1) All mice were anaesthetized with 2-3% sevoflurane. Adequate anesthesia was ascertained by an absent pedal withdrawal reflex after hard pinching of the toe. Closed tibial fracture was performed as previously described (Minville et al 2008). Briefly, after antiseptic preparation of the right paw with povidone-iodine, a unilateral closed fracture was produced in the right tibia using a specially designed fracture apparatus (blunt guillotine). For the intramedullary pinning using a sterile technique, a hole was made above the tibial tuberosity per-cutaneously using a 27 G needle (BD Microlance—27G ¾L 19 mm). Then, the needle was directed straight into the medullary canal. By rotating the needle, the canal was reamed to 5 mm up to the ankle joint. The end of the needle was cut as short as possible so that the skin could roll over and covers it. No suture was performed. The mouse was then placed with the leg on the anvil in order to line up the blunt guillotine with the proximal third of the tibia. A 300 g weight was decreased from a height of 9 to 10 cm, fracturing the tibia shaft.
(§2) Apelin administration (ip, 0.5 umol/kg, Bachem) has been performed 1 hour before fracture and daily during the 15 consecutive days.

TNFa mRNA = settings: fractured mice, tissues collected 72 hours after fracture; FIG. 3a
Method: as §1, §2

fractured mice [2] = system: fractured mice
Method: as §1, §2

In the case of apelin, the “Hippocampal memory (percentage of freezing) in aged mice after fracture” value (fractured mice [1]) is reported as “do not exhibit hippocampal memory failure”, the “Hippocampus IL-6 mRNA expression” value (IL-6 mRNA) is reported as “avoid IL-6 increase” and the “Hematoma TNFa mRNA expression” value (TNFa mRNA) is reported as “strong decreased”. For the same substance, the “Pain and nociception measured by Von Frey technique” value (fractured mice [2]; apelin ip 0.5 umol/kg 1 hour before fracture and daily, tested at day 1, 5 and 15 after fracture, FIG. 1a) was “significantly decreased”, the “Pain and nociception measured by Hargreave's technique” value (fractured mice [2]; apelin ip 0.5 umol/kg 1 hour before fracture and daily, tested at day 1, 5 and 15 after fracture, FIG. 1b) was “significantly decreased” and the “Freezing rate in non-operated mice” value (fractured mice [2]; non-operated mice treated by apelin, FIG. 2) was “did not display change”. The “Freezing rate in operated mice, compared to operated mice receiving saline injections” value (fractured mice [2]; operated mice, daily injection of apelin, day 3 after fracture, FIG. 2) was “increased”.
